Patent EP1214933A1, “METHOD FOR MODULATING THE METABOLISM OF NITROGEN OXIDES, COMPOSITIONS THEREFOR (AND VARIANTS) AND METHOD FOR ACTING ON A PATIENT'S ORGANISM NECESSITATING THE METABOLISM OF NITROGEN OXIDES TO BE CORRECTED” (Institut Molekulyarnoi Genetiki Rossiiskoi Akademii Nauk ( …, priority 1999, dated 2001)

Assays:
[1] = Efficacy of renitrosation catalysts by N1-nitrozotriptophan denitrosation kinetics; type: biochemical; conditions: 32°C, normalized for the buffer molarity
Experimental: The efficacy of renitrosation catalysts was determined by N^1-nitrozotriptophan (NOW) denitrosation kinetics in the composition of an acylic derivative or serum albumin at 32°C and at different pH values by absorption decrease at λ = 340 nm or by differential spectroscopy relative to denitrosation reaction in a buffer solution, in relation to nitrite/nitrate ratio or by the ratio analysis of nitrosation products. Examples 7-17 illustrate catalytic and inhibitory activity of W^0/W^0buffer compounds used in the claimed compositions (normalized for the buffer molarity).

NO oxidation in blood = assay: In vivo micellar NO oxidation catalysis: arterial pressure and plasma nitrite/nitrate; parameters: species or system male rats of Wistar normotensive line; conditions: for nitrate increased by / nitrite level increased by: plasma, following NaNO2 injection
Experimental: The experiment was performed on male rats of Wistar normotensive line weighing 180-400 grams. Polyethylene catheters were implanted to animals under Ketamine anesthesia (5mg/100g intraperitoneally) 24 hours prior to the experiment. The femoral artery was catheterized for connecting to arterial blood pressure (AP) transducer and the femoral vein was catheterized for intravenous administering medicinal preparations. AP and heart rate (HR) were measured in the abdominal aorta using a pressure transducer connected to a computer through an amplifier and a digital converter. The animals were divided into groups each consisting of a control and a test subgroups. […] Monitoring AP and HR was continued for 1.5 hours after administering the solutions. Following recording initial AP level group one (group L-NAME) was intraperitonelly administered an inhibitor of NO-synthases N^ω-nitro-L-arginine methyl ester (50 mg/kg) and in 1.5 hours when AP stabilized at a steady level NaNO2 (1 mg/kg) was administered. After a steady lowering AP the animals were administered Perftoran or KH. Group two of rats (group FC) was administered Perftoran or KH immediately after recording initial AP level. Group three (group FCTh) was first administered 200 mg/kg α-lipoic acid and in 15 minutes it was administered Perftoran (or KH). Before commencement of each experiment, after AP got stabilized at a steady level while administering L-NAME and NaNO2 and also immediately following completion of monitoring 0.2 ml blood were taken in each experiment from the arterial catheter for analysis.

[2] = group L-NAME, experimental animals
[3] = reference buffer Phosphate, pH 6.3

In the case of `NC(N)=NCCCC(N)C(=O)O` [Example 13, D-Arg], the “W^0/W^0 buffer” value ([1]; reference buffer MOPS, pH 6) was 0.56.

For `O=N[O-].[Na+]` [NaNO2], the “lowering MAP by” value (NO oxidation in blood; group L-NAME, both subgroups, NaNO2 1 mg/kg after L-NAME) was 25±4 mm Hg, the “nitrate increased by” value (NO oxidation in blood; group L-NAME, controls) was 76 ± 26 µM and the “nitrite level increased by” value (NO oxidation in blood; group L-NAME, controls) was 362 ± 73 µM. The “nitrate increased by” value (NO oxidation in blood; [2]) was 87 ± 15 µM and the “nitrite level increased by” value (NO oxidation in blood; [2]) was 344 ± 68 µM.

With `O=P([O-])([O-])OP(=O)([O-])OP(=O)([O-])[O-].[Na+].[Na+].[Na+].[Na+].[Na+]` [Example 7, Na5P3O10] the “W^0/W^0 buffer” value [1, 3] was 4.

For `COC(=O)[C@@H](N)CCCNC(=N)N[N+](=O)[O-]` [L-NAME, N^ω-nitro-L-arginine methyl ester], the “Plasma levels of nitrites and nitrates” value (NO oxidation in blood; group L-NAME, after NOS inhibitor administration) was “insignificant lowering” and the “mean arterial blood pressure (MAP) raised by” value (NO oxidation in blood; group L-NAME, both subgroups, following L-NAME 50 mg/kg intraperitoneally) was 38±5 mm Hg.

In the case of Na2MnATP [Example 8], the “W^0/W^0 buffer” value [1, 3] was 0.7.

For `O=C(O)CCCCC1CCSS1` (stereo not drawn) [α-lipoic acid], the MAP change (NO oxidation in blood; FCTh group, both subgroups, α-lipoic acid 200 mg/kg) was “insignificant lowering MAP”.

With `O=P([O-])([O-])OP(=O)([O-])OP(=O)([O-])[O-].[Mn+2].[Na+].[Na+].[Na+]` [Example 9, Na3MnP3O10] the “W^0/W^0 buffer” value [1, 3] was 21.

In the case of `O=P([O-])([O-])OP(=O)([O-])OP(=O)([O-])[O-].[Mg+2].[Na+].[Na+].[Na+]` [Example 10, Na3MgP3O10], the “W^0/W^0 buffer” value [1, 3] was 11.

For `O=C1O[C@H]([C@@H](O)CO)C(O)=C1O` [Example 17, Ascorbic acid], the “W^0/W^0 buffer” value ([1]; reference buffer Phosphate, pH 5.9) was 32.
